≈ marks a conversion by molar mass, not a printed value. Where only a bound is given, the exact number is not on record here.

What all share (format): functional
For assay [1], the system named is Mycobacterium tuberculosis. Briefly: In vitro minimum inhibitory concentration value against kanamycin resistant Mycobacterium tuberculosis in alamar assay.
For assay [2], the system named is Mycobacterium tuberculosis. Briefly: In vitro minimum inhibitory concentration value against isoniazid resistant Mycobacterium tuberculosis in alamar assay.
The subject of assay [3] is Mycobacterium tuberculosis. Briefly: In vitro minimum inhibitory concentration value against rifampin resistant Mycobacterium tuberculosis in alamar assay.
For assay [4], the system named is Mycobacterium tuberculosis. Kind of assay: In vitro minimum inhibitory concentration value against ciprofloxacin resistant Mycobacterium tuberculosis in alamar assay.
The subject of assay [5] is Mycobacterium tuberculosis. Briefly: In vitro minimum inhibitory concentration value against ethionamide resistant Mycobacterium tuberculosis in alamar assay.
Assay [6] relates to Mycobacterium tuberculosis. Kind of assay: Ratio of the MIC value of the Mycobacterium tuberculosis thiacetazone resistant strain to H37Rv strain was determined.
Assay [7] concerns Mycobacterium tuberculosis. Kind of assay: Ratio of the MIC value of the Mycobacterium tuberculosis rifampin resistant strain to H37Rv strain was determined.
Assay [8] concerns Mycobacterium tuberculosis. Kind of assay: Ratio of the MIC value of the Mycobacterium tuberculosis kanamycin resistant strain to H37Rv strain was determined.
Assay [9] relates to Mycobacterium tuberculosis. Briefly: Ratio of the MIC value of the Mycobacterium tuberculosis isoniazid resistant strain to H37Rv strain was determined.
In assay [10] the test system is Mycobacterium tuberculosis. Kind of assay: Ratio of the MIC value of the Mycobacterium tuberculosis ethambutol resistant strain to H37Rv strain was determined.
The test system of assay [11] is Mycobacterium tuberculosis. Kind of assay: Ratio of the MIC value of the Mycobacterium tuberculosis ciprofloxacin resistant strain to H37Rv strain was determined.
Assay [12] concerns Mycobacterium tuberculosis. Kind of assay: In vitro minimum inhibitory concentration value against thiacetazone resistant Mycobacterium tuberculosis in alamar assay.
In assay [13] the test system is Mycobacterium tuberculosis. Briefly: Ratio of the MIC value of the Mycobacterium tuberculosis ethionamide resistant strain to H37Rv strain was determined.
The subject of assay [14] is Mycobacterium tuberculosis. Kind of assay: In vitro minimum inhibitory concentration value against ethambutol resistant Mycobacterium tuberculosis in alamar assay.

In general, MIC refers to the lowest concentration found to suppress growth. Read a low MIC as a more susceptible organism. Consider `CCc1c(C(=O)OC)[n+]([O-])c2cc(C)c(C)cc2[n+]1[O-]`, for which the minimal inhibitory concentration (MIC) in assay [1] was determined as 0.39 µg/mL (≈ 1.41 µM); in [2] it was 1.56 µg/mL (≈ 5.65 µM); in assay [3], 0.39 µg/mL (≈ 1.41 µM); in assay [4], 0.39 µg/mL (≈ 1.41 µM); in [5], 0.78 µg/mL (≈ 2.82 µM); in assay [12], 0.78 µg/mL (≈ 2.82 µM). This compound gave an MIC in assay [14] of 0.78 µg/mL (≈ 2.82 µM). Further, the Ratio in assay [6] was determined as 2 µg/mL; in assay [7], 1 µg/mL; in assay [8], 1 µg/mL; in [9], 4 µg/mL; in [10], 2 µg/mL; in assay [11], 1 µg/mL. The Ratio in assay [13] was determined as 2 µg/mL.
Consider `COC(=O)c1c(Cc2ccccc2)[n+]([O-])c2cc(Cl)c(Cl)cc2[n+]1[O-]`, for which the minimum inhibitory concentration (MIC) in assay [1] is not above 3.13 µg/mL; in assay [2], 6.25 µg/mL (≈ 16.5 µM); in assay [3] it was not above 3.13 µg/mL; in assay [4], 12.5 µg/mL (≈ 33 µM); in [5], 6.25 µg/mL (≈ 16.5 µM); in assay [12] it was not above 3.13 µg/mL. In addition, the MIC in assay [14] is not above 3.13 µg/mL. Moreover, the Ratio is 1 µg/mL in assay [6]; 1 µg/mL in assay [7]; 1 µg/mL in assay [8]; “>=2 ug ml-1” in [9]; 1 µg/mL in assay [10]; “>=3.99 ug ml-1” in [11]. In assay [13], the Ratio entry is reported as “>=2 ug ml-1”.

These data come from ChEMBL document CHEMBL1144409, “Synthesis of new quinoxaline-2-carboxylate 1,4-dioxide derivatives as anti-Mycobacterium tuberculosis agents” (J Med Chem, 2005).
